In series [1] the test system is Influenza A virus H3N2 (Hong Kong). Nature of the series: Inhibition of infectivity / virus yield reduction in MDCK cells. In kind it is cell-based. The settings on record: virus yield reduced by 1 log10, 3 days. The method, then:
Table provides data for inhibition of infectivity of Influenza A virus H3N2 (Hong Kong) for NB-DNJ (UV-1), NN-DNJ (UV-2), N7-O-DNJ (UV-3), N9-DNJ (UV-4) and NAP-DNJ (UV-5).
Procedure. The compounds were screened for inhibition of generation of infectious virus was conducted on the UV compounds at concentrations up to 500 μM. The influenza virus, Influenza A H3N2, Brisbane/10/2007 strain was evaluated for virus inhibition. MDCK cells (Madin Darby canine kidney cell line) obtained from American Type Culture Collection (ATCC, Manassas, Va.). Cells were cultured in U1traMDCK, supplemented with 2 mM L-glutamine, 1 μg/ml TPCK-treated trypsin and 100 U/ml penicillin, 100 μg/ml streptomycin in cell culture treated 24-well flat bottom plates at 37° C. in a 5% CO2 incubator for 24 hr or until 80% confluent prior to assay. Cells were pretreated with compounds in a final concentration of 0.5% DMSO for 1 hr followed by addition of virus inoculums. Three wells per virus are saved for a virus-only control. Only medium is added in exchange for compound in these wells, and virus is added after the initial 1 hr incubation. Three days later virus containing supernatants were collected and effect on reduction of virus yield are tested by assaying frozen and thawed eluates from each well for virus titer by serial dilution onto monolayers of MDCK susceptible cells.

Series [2] deals with INFV A H1N1 (strain A/Texas). Kind of series: Influenza in vivo study: survival of infected mice. The settings on record: ~5 LD50 intranasal, monitored 15 days. Also noted: species or system Balb/c mice. The method, then: UV-4 was administered as a free drug dissolved in acidic water. The compound was given at 100 mg/kg and 10 mg/kg by the oral route (intragastric via oral gavage—IG) twice daily. Balb/c mice received the compound for 10 days. Mice were infected with INFV A H1N1 (strain A/Texas) intranasally with ˜5 LD50 30 minutes following the first iminosugar dose.
Animals were monitored for 15 days. Animals were weighed once per day, and given health scores 2X per day. Animals displaying severe illness (as determined by 30% weight loss, extreme lethargy, ruffled coat, or paralysis) were euthanized.

Series [3] is described as follows: Iminosugar safety study in mice. The class given is in vivo, BALB/c and C57/B1/6 mice. The conditions noted are these: for weight loss compared to vehicle only control: BALB/c and C57/B1/6 mice, oral 100 and 10 mg/kg twice a day for 7 days; for clinical signs: highest concentration (100 mg/kg twice a day, 7 days). The method, then:
Methods and Discussion: BALB/c and C57/B1/6 mice were given oral suspensions of UV-1, UV-4, UV-5, twice a day for seven days, in 100 ul per mouse at 100 and 10 mg/kg (2 mg and 0.2 mg/mouse, respectively) 8 hours apart for 7 days, and then monitored for weight loss and general health. […] The results of these experiments are in FIG. 6.

Series [4] concerns INFV A H1N1 (strain A/Texas). Nature of the series: Second influenza in vivo study: survival after H1/N1 (Texas) virus challenge. The arrangement: species or system Balb/c mice. The conditions noted are these: 100 mg/kg TID oral for 10 days, ~1 LD90. The method, then:
UV-4 was administered to the treated mice as a free drug dissolved in acidic water by the oral route (intragastric via oral gavage—IG) 100 mg/kg, TID for 10 days. The control mice received water orally, TID, instead of UV-4. Balb/c mice were used both for the treated mice and the control mice. Each mouse was microchipped for individual identity.
Mice were infected with INFV A H1N1 (strain A/Texas) intranasally with ˜1 LD90.
Animals were monitored for 15 days. Animals were weighed once per day, and given health scores 2× per day. Animals displaying severe illness (as determined by 30% weight loss, extreme lethargy, ruffled coat, or paralysis) were euthanized. The endpoint was considered a death of the animal or a more than 30% weight loss.
The studied mice include the following groups (10 mice per group):
1) 1 hr pre-treatment. These mice received their first UV-4 dose 1 hr before being infected with INFV A H1N1 (strain A/Texas).
2) 24 hr post-treatment. These mice received their first UV-4 dose 24 hr after being infected with INFV A H1N1 (strain A/Texas).
3) 48 hr post treatment. These mice received their first UV-4 48 hr after being infected with INFV A H1N1 (strain A/Texas).
4) 96 hr post treatment. These mice received their first UV-4 96 hr after being infected with INFV A H1N1 (strain A/Texas).

On to `CCCCCCCCCN1C[C@H](O)[C@@H](O)[C@H](O)[C@H]1CO` [UV-2, N-Nonyl deoxynojirimycin], for which the IC90 – broadly, the concentration needed for an effect of 90% – in series [1] was found to be 200 nM.
Compound `COCCCCCCCCCN1C[C@H](O)[C@@H](O)[C@H](O)[C@H]1CO` [UV-4, N-(9-Methoxynonyl)deoxynojirimycin] gave an IC90 in series [1] of 200 nM. In addition, the survival rate in series [2] (10 mg/kg BID oral gavage for 10 days) and in series [2] (100 mg/kg BID oral gavage for 10 days) was 90% each time. For the same compound, the “weight loss compared to vehicle only control” value in series [3] is listed as “did not show any significant signs of weight loss”. The survival is on record as 100% in series [4] (first dose 1 hr before infection), 100% in series [4] (first dose 24 hr after infection), 90% in series [4] (first dose 48 hr after infection) and 90% in series [4] (first dose 96 hr after infection).
The compound `CCCOCCCCCCN1C[C@H](O)[C@@H](O)[C@H](O)[C@H]1CO` [UV-3, N-(7-Oxadecyl)deoxynojirimycin] came in with an IC90 in series [1] of 200 nM.
In series [1], `CCCCN1C[C@H](O)[C@@H](O)[C@H](O)[C@H]1CO` [UV-1, N-Butyl deoxynojirimycin] yielded an IC90 of 20000 nM. Moreover, the “weight loss compared to vehicle only control” value in series [3] is reported as “did not show any significant signs of weight loss”.
The compound `[N-]=[N+]=Nc1ccc(NCCCCCCN2C[C@H](O)[C@@H](O)[C@H](O)[C@H]2CO)c([N+](=O)[O-])c1` [UV-5, N-(N-{4′-azido-2′-nitrophenyl}-6-aminohexyl)deoxynojirimycin] displayed an IC90 in series [1] of 200 nM. The “weight loss compared to vehicle only control” value in series [3] is recorded as “did not show any significant signs of weight loss”. The clinical signs result is “signs of diarrhea, red urine, and a ruffled appearance” in series [3] (BALB/c mice); “these same symptoms but without the ruffled look” in series [3] (C57/B1/6 mice).

The values above are taken from patent US20160243096A1, “METHODS OF TREATING ORTH[…]” (Emergent Virology LLC, priority 2009, published 2016).
